Assay [1] has as its system Unselected culture tissue. Put plainly: Herbicide inhibition of plant regeneration, unselected culture tissue. The assay is classed as cell-based, maize. The protocol:
Eighty to 90 mg quantities of maize callus tissue were transferred to embryo and shoot development (regeneration) media in petri plates. The media consisted of MS basal media supplemented with 0.1 mg per liter 2,4-D and 1×10^-7 M abscissic acid. 0.25% Gelrite (Kelco Co., San Diego, Calif.) was used as a solid support in place of agar. The tissue was incubated in the dark at 26° C. (approximately 300 footcandles,soft white fluorescent) on a cycle of 14 hours light, 10 hours dark. Developing plants reaching a size of 1-3 cm were then transferred to flasks or jars, containing MS media with no supplementation, for further development. When plants reached the two to three leaf stage, they were moved to pots containing vermiculite and exposed to light at 2600 footcandles. These plants were watered with 20% v/v MS media for one week and then with water until they grew stably. The plants were then transferred to soil for growth to maturity.
The effect of various concentrations of 214 on plant regeneration embryo and shoot development were evaluated. Unselected culture tissue was transferred to regeneration media containing various concentrations of 214 ranging from 0.01 to 0.3 mg per liter. The tissue was then put through the first three weeks of the plant regeneration protocol described supra. The culture was scored after this time for the production of well defined shoots.

Another assay has as its system cell line XA119. Put plainly: Tolerance of cell line XA119 at the cellular level. The assay is classed as cell-based, maize.
Another assay deals with maize seedlings. Put plainly: Germination and seedling growth from excised mature maize embryos. The assay is classed as in vivo. Particulars: concentration in the media, shoot growth after seven days. Here is the method:
The herbicidal effects of 997 on maize seedlings were determined by evaluating germination and seedling growth from excised, mature maize embryos (Green, 1974, Crop Sci. 14: 54-58). Seeds were sterilized for 10 minutes in 0.5% hypochlorite and then imbibed for 24 hours in sterile, distilled water. Mature embryos were aseptically excised and plated on solid MS media […] containing various concentrations of 997 and no 2,4-D. Embryos were placed with their shoot axis away from the media. Shoot growth was quantitated after seven days.

Assay [2] relates to Black Mexican Sweet Corn tissue. Put plainly: Free amino acid levels in Black Mexican Sweet Corn suspension cultures. Particulars: for activity at 10 µM / fold induction at 10 µM: Zea mays; for activity at 10 µM: After 48 hours of herbicide exposure; for fold induction at 10 µM: over a period of 48 hours, vs control cultures. The assay is classed as cell-based, maize. The protocol: Suspension culture cells were treated for 3.5 hours or 48 hours with 1×10^-5 M 997. Cells were removed from suspension by filtration and 1 gram fresh weight quantities were ground with sand with a mortar and pestle in 1 ml 5% TCA. Four ml of 5% TCA were added and the extract centrifuged at 10,000×g for 10 minutes. The pellet was reextracted and the supernatants combined and subjected to cation exchange chromatography. The samples were applied to Bond Elut SCX columns (Analytichem International Inc., Harbor City, Calif.) which had been equilibrated with 5% TCA. Following sample application, the columns were washed with 5 ml distilled, deionized water, and the amino acids were eluted with 2 ml aliquots of 5% v/v triethylamine. The aliquots were combined (6 ml), lyophilized, and subjected to amino acid analysis with a Kontron Liquemat III amino acid analyzer (Hesber, Middlesex TW5 OQU, England).

Assay [3] concerns AHAS activity from line UV18. The experiment in a line: AHAS activity assay, line UV18. The assay is classed as biochemical, maize. Particulars: 3×10^-6 to 3×10^-4 M 997. The protocol: Assays were conducted as a modification of the procedure of Smith et al. (1979, Molec. Gen. Genet. 169: 299-314). Plant cell culture material was ground with sand in a cold mortar and pestle in an equal quantity (w/v) of cell disruption media containing 0.05 M potassium phosphate (pH 7.0), 0.1 mM MgSO4, and 0.5 mM dithiothreitol. The preparation was centrifuged at 11,000×g for 20 minutes and the supernatant assayed for AHAS activity. Assays were conducted in 1 ml volumes containing 0.05 M potassium phosphate (pH 8.0), 40 mM pyruvate, 5 mM MgCl2, 0.1 mM thiamine pyrophosphate, 0.2 ml cell extract, and various concentrations of the herbicide of interest. The reaction mixtures were incubated at 30° C. for 75 minutes and the reaction terminated with the addition of 0.1 ml of 50% (v/v) H2 SO4. Following further incubation at 40° C. for 20 minutes, the acetoin formed from acetolactate by acidification was quantitated using the method of Westerfield (1945, J. Biol. Chem. 161: 495). To 0.2 ml of reaction mixture, 0.8 ml of water, 0.5 ml of 0.5% (w/v) creatine, and 0.5 ml of 5% (w/v) naphthol in 10% (w/v) NaOH was added. After mixing, solutions were incubated at room temperature for one hour. The development of pink color was quantitated by measuring light absorbance at 530 nm. […]

Setting [4] is: 1 × 10^-5 M 997, 3.5 hr., Estimated.

In brackets after ≈: the same amount, converted by molar mass. Like-named read-outs stand apart in the source and are kept apart here.

As for `CC(C)C1(C)NC(c2nc3ccccc3cc2C(=O)O)=NC1=O` (centres unmarked) [compound 214, 2-(5-isopropyl-5-methyl-4-oxo-2-imidazolin-2-yl)3-quinolinecarboxylic acid], in assay [1] (0.3 mg per liter 214), the “somatic embryo development and shoot formation” value is “completely inhibited”. In assay [1] (Zea mays, 504 h, based on the number of shoots formed, first three weeks of regeneration protocol, read-out: concentration inhibiting plant regeneration 50%), the IC50 is 0.03 to 0.1 µg/mL (≈ 0.0964 to 0.321 µM). Also, in the assay on cell line XA119, the “enhancement of tolerance at the cellular level” value is “approximately three fold”.
Consider `CC(C)C1(C)NC(c2ncccc2C(=O)O)=NC1=O` (centres unmarked) [compound 997, 2-(5-isopropyl-5-methyl-4-oxo-2-imidazolin-2-yl)nicotinic acid], for which, in the assay on maize seedlings, the “herbicide concentration giving 50% growth inhibition” value is given as 1 to 3×10^-8 M. In addition, in assay [2] (1 × 10^-5 M 997, 3.5 hr.), the Free asp level was 175 nmol per g fresh weight tissue, the “Free cystine (Oxidized cysteine) level” value is 103 nmol per g fresh weight tissue, the Free glu level is reported as 360 nmol per g fresh weight tissue and the Free gly level was 98 nmol per g fresh weight tissue. In assay [2] (1 × 10^-5 M 997, 3.5 hr.), the Free his level is 184 nmol per g fresh weight tissue, the Free ile level is recorded as 120 nmol per g fresh weight tissue, the Free leu level is 120 nmol per g fresh weight tissue and the Free lys level is reported as 212 nmol per g fresh weight tissue. In addition, in assay [2] (1 × 10^-5 M 997, 3.5 hr.), the Free met level was 100 nmol per g fresh weight tissue, the Free phe level is 151 nmol per g fresh weight tissue, the Free ser level was 540 nmol per g fresh weight tissue and the Free thr level is recorded as 89 nmol per g fresh weight tissue. Besides, in assay [2] (1 × 10^-5 M 997, 3.5 hr.), the Free tyr level is given as 112 nmol per g fresh weight tissue and the Free val level is given as 355 nmol per g fresh weight tissue. Also, in assay [2] (setting [4]), the Free ala level is on record as 600 nmol per g fresh weight tissue, the Free arg level is listed as 60 nmol per g fresh weight tissue and the Free trp level is listed as 30 nmol per g fresh weight tissue. Also, in assay [2] (1 × 10^-5 M 997, 48 hr.), the Free ala level was 455 nmol per g fresh weight tissue, the Free arg level is listed as 55 nmol per g fresh weight tissue, the Free asp level is reported as 100 nmol per g fresh weight tissue and the “Free cystine (Oxidized cysteine) level” value is given as 435 nmol per g fresh weight tissue. Besides, in assay [2] (1 × 10^-5 M 997, 48 hr.), the Free glu level was 175 nmol per g fresh weight tissue, the Free gly level is 60 nmol per g fresh weight tissue, the Free his level is on record as 310 nmol per g fresh weight tissue and the Free ile level was 38 nmol per g fresh weight tissue. In assay [2] (1 × 10^-5 M 997, 48 hr.), the Free leu level is given as 16 nmol per g fresh weight tissue, the Free lys level is on record as 240 nmol per g fresh weight tissue, the Free met level was 405 nmol per g fresh weight tissue and the Free phe level is 195 nmol per g fresh weight tissue. Moreover, in assay [2] (1 × 10^-5 M 997, 48 hr.), the Free ser level was 1160 nmol per g fresh weight tissue, the Free trp level is listed as 30 nmol per g fresh weight tissue, the Free tyr level is listed as 130 nmol per g fresh weight tissue and the Free val level is given as 48 nmol per g fresh weight tissue. Also, in assay [2] (read-out: free isoleucine level relative to untreated cell cultures), the activity at 10 µM is 31%. The activity at 10 µM in assay [2] (read-out: free leucine level relative to untreated cell cultures) stood at 8%. For the same compound, the activity at 10 µM in assay [2] (read-out: free valine level relative to untreated cell cultures) stood at 12%. Also, the fold induction at 10 µM in assay [2] (read-out: increase of free cysteine during herbicide exposure) was found to be 24. The fold induction at 10 µM in assay [2] (read-out: increase of free methionine during herbicide exposure) was determined as 8. In addition, the fold induction at 10 µM in assay [2] (read-out: increase of free serine during herbicide exposure) was 3. For the same compound, the “tolerance of AHAS activity vs AHAS from control cultures” value in assay [3] is reported as “more tolerant”.

Source of the values: patent publication US6211439A, “Herbicide resistance in plants” (MGI Pharma, Inc, priority 1995, dated 2001).
